From US10124033B2, “Peptides and methods of use” (BAXALTA INCORPORATED, priority 2014, dated 2018)
Residues, ends and D or L forms follow the SMILES beside them.

Columns and labels:
[1] = target: T1, Protein S/APC cofactor activity (Homo sapiens, UniProt P07225); test: CAT assay: Protein S/APC-dependent thrombin generation in FVIII-inhibited plasma; assay type: biochemical; conditions: Protein S-depleted plasma supplemented with APC and Protein S, FVIII-inhibited
T1 construct: host or cells: plasma
T1 sequence (P07225 41-676 limits assumed): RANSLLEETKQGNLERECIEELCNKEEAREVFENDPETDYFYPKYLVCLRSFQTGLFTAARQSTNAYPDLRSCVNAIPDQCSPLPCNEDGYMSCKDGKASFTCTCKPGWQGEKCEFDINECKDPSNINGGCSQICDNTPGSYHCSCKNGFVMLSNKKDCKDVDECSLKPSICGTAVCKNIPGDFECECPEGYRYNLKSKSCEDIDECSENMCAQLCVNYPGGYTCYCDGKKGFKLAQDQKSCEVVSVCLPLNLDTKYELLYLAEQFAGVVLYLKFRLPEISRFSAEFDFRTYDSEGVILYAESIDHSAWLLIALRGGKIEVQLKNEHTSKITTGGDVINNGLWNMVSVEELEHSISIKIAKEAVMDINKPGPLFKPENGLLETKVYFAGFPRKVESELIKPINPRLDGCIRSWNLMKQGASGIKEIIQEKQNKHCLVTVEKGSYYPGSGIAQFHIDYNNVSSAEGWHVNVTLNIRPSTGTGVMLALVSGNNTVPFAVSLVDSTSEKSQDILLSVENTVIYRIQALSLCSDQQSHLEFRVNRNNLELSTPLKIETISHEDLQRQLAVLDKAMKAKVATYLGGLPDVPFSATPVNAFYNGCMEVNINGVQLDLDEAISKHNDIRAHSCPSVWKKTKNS
Experimental: Peptides also were tested for improvement of Protein S/APC-dependent thrombin generation in hemophilic plasma using a CAT assay. Protein S enhances the anticoagulation of APC in plasma. The CAT assay quantifies the effect of Protein S on APC-mediated thrombin generation initiated via the extrinsic coagulation pathway (Nicolaes, Blood Coagul. Fibrinolysis, 8:28 (1997)). APC (35 nM) and Protein S (25 nM) was added to Protein 5-depleted plasma, and plasma samples were incubated with high titer heat inactivated anti-human FVIII plasma raised in goat (4490 BU/ml; Baxter BioScience, Vienna, Austria; 50 BU/ml final plasma concentration). Thrombin formation in plasma was followed by calibrated automated thrombography (CAT) in a Fluoroskan Ascent® reader (Thermo Labsystems, Helsinki, Finland) and quantified via the thrombin peak-height. Thrombin generation was determined at high tissue factor (TF) concentration in the absence and in the presence of APC at a concentration that reduces the peak height to ˜20%. The inhibitory effect of peptides described herein on the APC cofactor activity of Protein S (PS) in plasma was measured in FVIII-inhibited pooled normal plasma supplemented with APC. Complete (100%) Protein S/APC inhibition is the height of the thrombin peak without addition of APC. Lack of (0%) PS/APC inhibition correlates to the thrombin peak-height value with a certain amount of APC. Peptides were ranked by their normalized values in comparison to the mean of wild-type controls including SD at two defined peptide concentrations (EC50 and EC90).
Exemplary conditions for the CAT assay are as follows. Protein S-depleted plasma was supplemented with 35 nM APC and […]. Stock APC was diluted with 10 pM TF and 15 μM PL. Lyophilized peptides were dissolved in 100% DMSO to a 5 mM stock concentration and further diluted with HNABSA5-buffer+0.1% Tween80. […] In a 96 well Immulon 2HB (transparent), U-bottom (ThermoElectron) plate was mixed 80 μl plasma (+CTI+Z994-5), 10 μl peptide dilution, and 10 μl APC-TF-PL-MIX or Calibrator. Thrombin generation was initiated by dispensing 20 μL of FluCa reagent containing fluorogenic substrate and HEPES-buffered CaCl2 (100 mM) into each well. Fluorescence intensity was recorded at 37° C. using the Fluoroskan Ascent® reader (filters 390 nm excitation and 460 nm emission). The parameters of the resulting thrombin generation curves were calculated using the Thrombinoscope™ software (Thrombinoscope) and thrombin calibrator to correct for inner filter and substrate consumption effects (Hemker, Pathophysiol Haemost Thromb, 33: 415 (2003)).

[2] = target: T2, Protein S (Homo sapiens, UniProt P07225); test: competition (IC50) ELISA with biotinylated tracer peptide JBS0684; assay type: binding; conditions: competition ELISA, tracer JBS0684; re-synthesized peptides
T2 sequence (P07225 41-676 limits assumed): T1 sequence (P07225 41-676 limits assumed)
Experimental: The new peptide candidates were synthesized (purity >60%) and screened for affinity in a competitive binding assay (ELISA IC50) and activity in a thrombin generation assay (CAT). The competition (IC50) ELISA was performed using biotinylated tracer peptide JBS0684 to compete for Protein S-binding with candidate peptides. Peptides that compete with the tracer bind the same region of Protein S as the tracer (and each other). Ninety-six well PolySorp plates (Nunc) were coated with 3 μg/mL Protein S in coating buffer (15 mM Na2CO3, 35 mM NaHCO3, pH 9.6) over night. Plates were washed three times with wash buffer (HNaT: 175 mM NaCl, 25 mM HEPES, 5 mM CaCl2, 0.1% Tween 80, pH 7.35), and blocked with 100 μl 2% yeast extract in HNaT for at least 1 hour. Plates were then washed three times with HNaT. JBS0684 was applied at a concentration corresponding to the EC90 value determined in the binding ELISA. A competitor stock solution of peptide (10 mM) was diluted 1/33.3 in HNaT without HSA, and a serial ⅓ dilution was prepared with HNaT with 3% DMSO. The dilution was further diluted with the biotinylated tracer peptide in a ratio of 1:6 (20 μl competitor dilution and 100 μl tracer peptide). The mixture of competitor and tracer peptide was applied to the Protein S-coated microtiter plate and incubated for 1.5 hours. The plates were washed three times with HNaT. Peptide-Protein S binding was detected by applying HRP-conjugated streptavidin to the microtiter plate, incubating the mixture for one hour, washing the plate three times with HNaT, applying TMB (3,3′5,5′-Tetramethylbenzidin), and detecting the subsequent chromogenic conversion of TMB by HRP. IC50 measurements of peptides are provided herein (see, e.g., Table 3).

Compound	EC50 [1]	IC50 [2]
CC(=O)N[C@H](C(=O)NCC(=O)N[C@@H](Cc1c[nH]cn1)C(=O)N[C@H](C(=O)N[C@@H](CO)C(=O)N[C@@H](C)C(=O)NCC(=O)N[C@@H](Cc1c[nH]c2ccccc12)C(=O)N[C@@H](Cc1ccc(O)cc1)C(=O)N[C@@H](CC(=O)O)C(=O)N[C@@H](Cc1ccc(O)cc1)C(=O)N[C@@H](CC(N)=O)C(=O)N[C@@H](C)C(=O)N[C@@H](CC(=O)O)C(=O)N[C@@H](Cc1c[nH]cn1)C(=O)N[C@@H](Cc1ccc(O)cc1)C(=O)N[C@@H](CCCNC(=N)N)C(=O)N[C@@H](CCC(=O)O)C(=O)N[C@@H](Cc1ccccc1)C(=O)N[C@H](C(N)=O)[C@@H](C)O)C(C)C)[C@@H](C)O [JBS2526] (Ac-TGHVSAGWYDYNADHYREFT-NH2)	19 nM	3.6 nM
CC(=O)N[C@H](C(=O)NCC(=O)N[C@@H](Cc1c[nH]cn1)C(=O)N[C@H](C(=O)N[C@@H](CO)C(=O)N[C@@H](C)C(=O)NCC(=O)N[C@@H](Cc1c[nH]c2ccccc12)C(=O)N[C@@H](Cc1ccc(O)cc1)C(=O)N[C@@H](CC(=O)O)C(=O)N[C@@H](Cc1ccc(O)cc1)C(=O)N[C@@H](CC(N)=O)C(=O)N[C@@H](Cc1ccccc1)C(=O)N[C@@H](CC(=O)O)C(=O)N[C@@H](CC(=O)O)C(=O)N[C@@H](Cc1ccc(O)cc1)C(=O)N[C@@H](CCCNC(=N)N)C(=O)N[C@@H](CCC(=O)O)C(=O)N[C@@H](Cc1ccccc1)C(=O)N[C@H](C(N)=O)[C@@H](C)O)C(C)C)[C@@H](C)O [JBS2546] (Ac-TGHVSAGWYDYNFDDYREFT-NH2)	30 nM	6.8 nM
CC(=O)N[C@H](C(=O)NCC(=O)N[C@@H](Cc1c[nH]cn1)C(=O)N[C@H](C(=O)N[C@@H](CO)C(=O)N[C@@H](C)C(=O)NCC(=O)N[C@@H](Cc1c[nH]c2ccccc12)C(=O)N[C@@H](Cc1ccc(O)cc1)C(=O)N[C@@H](CC(=O)O)C(=O)N[C@@H](Cc1ccc(O)cc1)C(=O)N[C@@H](CC(N)=O)C(=O)N[C@@H](Cc1ccccc1)C(=O)N[C@@H](CC(=O)O)C(=O)N[C@@H](CCCCN)C(=O)N[C@@H](Cc1ccc(O)cc1)C(=O)N[C@@H](CCCNC(=N)N)C(=O)N[C@@H](CCC(=O)O)C(=O)N[C@@H](Cc1ccccc1)C(=O)N[C@H](C(N)=O)[C@@H](C)O)C(C)C)[C@@H](C)O [JBS2604] (Ac-TGHVSAGWYDYNFDKYREFT-NH2)	19 nM	4.1 nM
CC(=O)N[C@H](C(=O)NCC(=O)N[C@@H](Cc1c[nH]cn1)C(=O)N[C@H](C(=O)N[C@@H](CO)C(=O)N[C@@H](C)C(=O)NCC(=O)N[C@@H](Cc1c[nH]c2ccccc12)C(=O)N[C@@H](Cc1ccc(O)cc1)C(=O)N[C@@H](CC(=O)O)C(=O)N[C@@H](Cc1ccc(O)cc1)C(=O)N[C@@H](CC(N)=O)C(=O)N[C@@H](Cc1ccccc1)C(=O)N[C@@H](CC(=O)O)C(=O)N[C@@H](Cc1c[nH]cn1)C(=O)N[C@@H](Cc1ccc(O)cc1)C(=O)N[C@@H](CC(C)C)C(=O)N[C@@H](CCC(=O)O)C(=O)N[C@@H](Cc1ccccc1)C(=O)N[C@H](C(N)=O)[C@@H](C)O)C(C)C)[C@@H](C)O [JBS2586] (Ac-TGHVSAGWYDYNFDHYLEFT-NH2)	19 nM	2.6 nM
CC(=O)N[C@H](C(=O)NCC(=O)N[C@@H](Cc1c[nH]cn1)C(=O)N[C@H](C(=O)N[C@@H](CO)C(=O)N[C@@H](C)C(=O)NCC(=O)N[C@@H](Cc1c[nH]c2ccccc12)C(=O)N[C@@H](Cc1ccc(O)cc1)C(=O)N[C@@H](CC(=O)O)C(=O)N[C@@H](Cc1ccc(O)cc1)C(=O)N[C@@H](CC(N)=O)C(=O)N[C@@H](Cc1ccccc1)C(=O)N[C@@H](CC(=O)O)C(=O)N[C@@H](CC(C)C)C(=O)N[C@@H](Cc1ccc(O)cc1)C(=O)N[C@@H](CCCNC(=N)N)C(=O)N[C@@H](CCC(=O)O)C(=O)N[C@@H](Cc1ccccc1)C(=O)N[C@H](C(N)=O)[C@@H](C)O)C(C)C)[C@@H](C)O [JBS2584] (Ac-TGHVSAGWYDYNFDLYREFT-NH2)	9 nM	2.7 nM
CC(=O)NCC(=O)NCC(=O)N[C@@H](Cc1c[nH]cn1)C(=O)N[C@H](C(=O)N[C@@H](CO)C(=O)N[C@@H](C)C(=O)NCC(=O)N[C@@H](Cc1c[nH]c2ccccc12)C(=O)N[C@@H](Cc1ccc(O)cc1)C(=O)N[C@@H](CC(=O)O)C(=O)N[C@@H](Cc1ccc(O)cc1)C(=O)N[C@@H](CC(N)=O)C(=O)N[C@@H](Cc1ccccc1)C(=O)N[C@@H](CC(=O)O)C(=O)N[C@@H](Cc1c[nH]cn1)C(=O)N[C@@H](Cc1ccc(O)cc1)C(=O)N[C@@H](CCCNC(=N)N)C(=O)N[C@@H](CCC(=O)O)C(=O)N[C@@H](Cc1ccccc1)C(=O)N[C@H](C(N)=O)[C@@H](C)O)C(C)C [JBS2552] (Ac-GGHVSAGWYDYNFDHYREFT-NH2)	24 nM	5.5 nM
CC(=O)N[C@H](C(=O)NCC(=O)N[C@@H](Cc1c[nH]cn1)C(=O)N[C@H](C(=O)N[C@@H](CO)C(=O)N[C@@H](C)C(=O)NCC(=O)N[C@@H](Cc1c[nH]c2ccccc12)C(=O)N[C@@H](Cc1ccc(O)cc1)C(=O)N[C@@H](CC(=O)O)C(=O)N[C@@H](Cc1ccc(O)cc1)C(=O)N[C@@H](CC(N)=O)C(=O)N[C@@H](CCCCN)C(=O)N[C@@H](CC(=O)O)C(=O)N[C@@H](Cc1c[nH]cn1)C(=O)N[C@@H](Cc1ccc(O)cc1)C(=O)N[C@@H](CCCNC(=N)N)C(=O)N[C@@H](CCC(=O)O)C(=O)N[C@@H](Cc1ccccc1)C(=O)N[C@H](C(N)=O)[C@@H](C)O)C(C)C)[C@@H](C)O [JBS2602] (Ac-TGHVSAGWYDYNKDHYREFT-NH2)	30 nM	3.4 nM
